The target of series [1] is T1, HCV NS3/4A recombinant protease (UniProt O92972).
T1 construct: other: recombinant protease, 591 nm/622 nm FRET peptide, regression analysis; other: recombinant NS3/4A, Lineweaver-Burk; other: BV versus BR; effect o; fused on or other part: By knowledge of the vendor's product, the NS4A cofactor segment of the same polyprotein is fused to the N-terminus of the NS3 protease domain
The format is biochemical. To be noted: for Ki: recombinant NS3/4A, Lineweaver-Burk. How it is done:
In vitro assay of HCV NS3/4A recombinant protease. Protease activity was determined fluorometrically with the SensoLyte 620 HCV Protease Assay (AnaSpec, Fremont, Calif.) using a wide wavelength excitation/emission (591 nm/622 nm respectively) fluorescence energy transfer peptide according to the manufacturer's instructions. Control incubations with BV or metabolite only were performed to eliminate or correct for autofluorescence or quenching. A competitive inhibitor of the NS3/4A protease, AnaSpec #25346, was used as positive control.

Series [2] deals with HCV RNA in NS and FL replicons after BVR siRNA. The format is cell-based. To be noted: BV 20 μM or BR 100 μM overnight, both replicon lines, vs scrambled RNA. How it is done:
Quantitative Real-time RT-PCR. Total RNA was extracted from cells using Trizol reagent (Invitrogen, Carlsbad, Calif.), treated with Turbo RNase free DNase (Ambion, TX), and processed as described (Zhu et al., 2008). To assess replication, the primers and probe designed by Takeuchi et al. (1999) targeting sequences located in 5′UTR (nt130-290) were employed as described for each replicon line (Blight et al., 2002; Lohmann et al., 2003). Real-time RT-PCR was performed using Taq DNA polymerase with the TaqMan Universal PCR Master Mix Protocol (Perkin Elmer Applied Biosystems, Foster City, Calif.). Quantitation was performed using the comparative cycle threshold (ΔCT) method as described previously (Abdalla et al., 2004).
Biliverdin reductase (BVR) knockdown. Biliverdin reductase (BVR) siRNA and control (scrambled) siRNA were purchased from Santa Cruz Biotechnology (sc-44650 and sc-37007). BVR knockdown was performed as described previously (Ryter et al., 2007). Efficiency of the knockdown was monitored by semiquantitative densitometry of BVR WB.

Series [3] concerns replicon or parental cell lines (Huh7.5). Description: Cytotoxicity, MTT assay. Format: cell-based, human. As to conditions: 20-200 μM BV. How it is done:
Cytotoxicity assay. Cytotoxicity was assessed using the MTT assay as detailed previously (Wen et al., 2008). Cells (1×10^4 per well) were seeded in 96-well culture plates and allowed to attach overnight. […]
(Tetrazolium assays rely on reduction of a dye to a coloured formazan, in cell work by metabolically active cells.)

Molecules are shown by their SMILES. “And” between values parts separate entries of the source, which are not always exact repeats. Identical values can stand only once. Counter-ions that a name gives are not always drawn. Like-named read-outs stand apart in the source and are kept apart here.

This is an account of results in patent US20120177601A1, “TREATMENT OF HEPATITIS C VIRUS INFECTIONS” (THE USA AS REPRESENTED BY THE SECRETARY OF THE DEPARTMENT …, priority 2009, published 2012).

T1 sequence (O92972 1027-1657): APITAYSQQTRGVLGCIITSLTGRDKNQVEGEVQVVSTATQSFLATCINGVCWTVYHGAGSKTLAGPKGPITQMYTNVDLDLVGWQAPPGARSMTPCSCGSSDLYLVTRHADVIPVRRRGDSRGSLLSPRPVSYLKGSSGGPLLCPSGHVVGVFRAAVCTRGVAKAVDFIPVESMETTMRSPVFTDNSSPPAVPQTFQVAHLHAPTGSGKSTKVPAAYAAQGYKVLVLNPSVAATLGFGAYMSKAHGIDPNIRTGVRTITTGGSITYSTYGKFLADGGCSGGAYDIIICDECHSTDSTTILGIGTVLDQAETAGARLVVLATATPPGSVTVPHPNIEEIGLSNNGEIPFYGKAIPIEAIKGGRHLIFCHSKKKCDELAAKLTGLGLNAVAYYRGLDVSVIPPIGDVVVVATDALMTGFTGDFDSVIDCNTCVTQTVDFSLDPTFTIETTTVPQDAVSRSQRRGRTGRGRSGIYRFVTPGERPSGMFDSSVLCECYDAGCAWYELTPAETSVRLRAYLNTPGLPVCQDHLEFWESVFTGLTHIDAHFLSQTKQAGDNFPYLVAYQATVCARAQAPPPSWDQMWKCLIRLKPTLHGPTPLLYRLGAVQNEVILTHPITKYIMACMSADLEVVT

Turning to `C=CC1=C(C)/C(=C/C2=NC(=C\c3[nH]c(/C=C4\NC(=O)C(C)=C4C=C)c(C)c3CCC(=O)O)/C(CCC(=O)O)=C2C)NC1=O` [Biliverdin, biliverdin-IX-α hydrochloride], the “difference in IC50 of BV and BR for the NS3/4a protease” value in series [1] (BV versus BR) is “at least 10 fold”. Further, the “mode of inhibition of NS3/4A protease” value in series [1] (Lineweaver-Burk and secondary plots) was “both noncompetitive and competitive inhibitor activity”. For the same molecule, the “effect of BV together with #25346 on protease activity” value in series [1] (both BV and #25346 present) was “additive effect”. Further, the IC50 in series [1] (read-out: IC50, inhibition of HCV NS3/4A protease, recombinant protease, 591 nm/622 nm FRET peptide, regression analysis, listed as BV, hydrochloride) was 9.3 µM and 9 µM. The Ki in series [1] (read-out: Ki (competitive), secondary plot Km/V vs [BV]) was 0.6 µM; in series [1] (read-out: Ki′ (noncompetitive), secondary plot 1/Vap vs [BV]), 1.1 µM. In addition, in series [2], the “effect of BVR knockdown on antiviral activity (HCV RNA)” value was “significantly enhanced”. In addition, the “toxicity (MTT) with FBS” value in series [3] (inclusion of 3-5% FBS, data not shown) is reported as “toxicity was eliminated”. Besides, the “toxicity (MTT)” value in series [3] (serum-free culture medium, 24-48 hr) is listed as 15%.
